Measurements: US10889569B2, “Condensed ring group azacyclobutyl triazole derivative, preparation method therefor and use thereof in medicine” (Jiangsu Hengrui Medicine Co., Ltd., priority 2016, dated 2021)

Tests used:
[1] = Pharmacokinetics assay in rats after intragastrical administration; type: in vivo, SD rats; details: Sprague-Dawley, rat, plasma, po, 30 mg/kg, intragastric, male rats; for Vd/F: read-out: Apparent distribution volume Vz/F; for AUC: read-out: Area under curve AUC; for CL/F: read-out: Clearance CLz/F; for half-life: read-out: Half-life T1/2 (converted); for Cmax: read-out: Plasma concentration Cmax; for MRT: read-out: Residence time MRT
Procedure, shortened: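 Fasted male SD rats (3 per compound) received 30.0 mg/kg by gavage […] in 2.5% DMSO/97.5% of 10% solutol HS-15. Orbital blood was taken pre-dose and 0.5-24 h; plasma was acetonitrile-precipitated with camptothecin internal standard and quantified by LC/MS/MS.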

[2] = molecular target: human OTR (Homo sapiens, UniProt P30559); assay: Inhibition activity on human OTR (Fluo-4 calcium assay, HEK293/human OTR stably transfected cells); type: cell-based; details: oxytocin 3 nM
Procedure, shortened: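 HEK293 cells stably expressing human OTR, loaded with Fluo-4 for 30 min at 37 °C, were preincubated 10 min at room temperature with compound (stocks 10^1–10^6 nM). Oxytocin (3 nM as added) then triggered calcium signal, read immediately at 494/516; IC50 fitted from fluorescence versus concentration.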

[3] = molecular target: human V1aR (Homo sapiens (Human), UniProt P37288); assay: Inhibition activity on human V1aR (Fluo-4 calcium assay, HEK293/human V1aR stably transfected cells); type: cell-based; details: vasopressin 3 nM
Procedure, shortened: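 Stable HEK293/human V1aR cells, 25,000 cells/well, loaded with Fluo-4 for 30 minutes at 37° C. then 10 minutes room temperature; compounds (formulated at 10^1–10^6 nM) added 10 minutes before 3 nM vasopressin. Calcium fluorescence read immediately at 494/516; IC50 from concentration–signal curves.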

human V1aR, sequence (P37288 whole entry): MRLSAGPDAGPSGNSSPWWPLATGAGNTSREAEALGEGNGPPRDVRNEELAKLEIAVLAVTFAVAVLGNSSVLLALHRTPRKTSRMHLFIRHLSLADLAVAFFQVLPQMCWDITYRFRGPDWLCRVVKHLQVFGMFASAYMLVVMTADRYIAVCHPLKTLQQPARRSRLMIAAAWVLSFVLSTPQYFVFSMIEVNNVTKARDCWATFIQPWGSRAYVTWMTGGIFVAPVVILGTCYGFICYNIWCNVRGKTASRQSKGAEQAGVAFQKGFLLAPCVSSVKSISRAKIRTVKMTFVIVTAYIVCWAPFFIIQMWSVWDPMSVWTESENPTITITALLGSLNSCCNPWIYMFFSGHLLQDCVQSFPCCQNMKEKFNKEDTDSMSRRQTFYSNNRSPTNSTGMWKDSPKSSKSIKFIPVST

SMILES: COCc1nnc(N2CC(c3cccc4cc(F)ccc34)C2)n1-c1ccc(OC)nc1 [Example 2, 5-(3-(3-(6-Fluoronaphthalen-1-yl)azetidin-1-yl)-5-(methoxymethyl)-4H-1,2,4-triazol-4-yl)-2-methoxypyridine]
- Vd/F [1]: 5.29 ± 3.44 L/kg
- AUC [1]: 8580 ± 3560 ng·h/mL
- CL/F [1]: 63.8 ± 26.5 mL/min/kg
- half-life [1]: 0.91 ± 0.25 h
- Cmax [1]: 3930 ± 3030 ng/mL
- MRT [1]: 2.46 ± 1.44 h
- IC50 [2]: 2 nM
- IC50 [3]: 4500 nM

SMILES: COCc1nnc(N2CC(n3cc(C)c4cc(F)ccc43)C2)n1-c1ccc(OC)nc1 [Example 17, 5-Fluoro-1-(1-(5-(methoxymethyl)-4-(6-methoxypyridin-3-yl)-4H-1,2,4-triazol-3-yl)azetidin-3-yl)-3-methyl-1H-indole]
- Vd/F [1]: 13.7 ± 3.83 L/kg
- AUC [1]: 11200 ± 4390 ng·h/mL
- CL/F [1]: 48 ± 19 mL/min/kg
- half-life [1]: 3.35 ± 0.399 h
- Cmax [1]: 2020 ± 580 ng/mL
- MRT [1]: 5.08 ± 0.552 h
- IC50 [2]: 64 nM
- IC50 [3]: 4400 nM
